According to patent US20150320709A1, “METHODS AND COMPOSITIONS FOR FACILITATING WEIGHT LOSS BY ADMINISTRATION OF THYROID HORMONES” (priority 2011, published 2015):

Assay: Circulating thyroid hormone labs (FT3, FT4, rT3, TSH) in weight loss program patients on thyroid hormone treatment
Type: in vivo, human
From the text: FIG. 1 depicts hormonal responses to a hypocaloric state with subsequent treatment. Note: Time frames and shapes of response curves are approximated. Levels of all four hormones are normal before the diet (Time A). At time between time points B and D, TSH is dropping slightly to signal the thyroid gland to make less thyroid hormone. This drop is the mechanism to decrease metabolism in the hypocaloric state. At point C, free T3 begins to drop as rT3 increases. Also at time point C, different observations have been reported for changes in FT4: in our experience, FT4 also drops as indicated on the graph. In the literature, some report no change, whereas others report an increase in FT4. By the time of the blood sampling (time E), in our experience, patients whose FT3 and FT4 have dropped to the low end of normal (with possible above normal rT3 levels) are those experiencing symptoms of low thyroid. They may have any of the following symptoms: feeling cold, cold hands and feet, elevated diastolic blood pressure secondary to vasoconstriction, fatigue, depression, constipation, hair loss, dry skin, insomnia, as well as others. They have often hit a plateau of weight loss even though they have continued to maintain their hypocaloric diet and exercise program. At point F, we begin treatment with thyroid hormone (for example, T4 with T3, T3 alone, T3 with T2 and T4, or T2 alone. Between points F and G, FT3 and rT3 (and FT4 if T4 was administered) are returning to more normal levels, while TSH plummets, often to undetectable levels. At time point H, symptoms of low thyroid are resolved, the patient has no symptoms of hyperthyroidism, and if rT3 had risen and was treated appropriately, rT3 decreased.
The first patient example is a person, 5′2″, weight 268 lbs, body mass index (BMI) 49 (nl 19-24; overweight 25-29; obesity≧30). Baseline blood pressure was 110/74, blood sugar (BS) was 153 mg/dL 10 days after their first visit. Their medical problems at baseline included obesity, type 2 diabetes mellitus (DM2), high blood pressure (HTN), fatigue, depression, and asthma. Their medications included glipizide 10 mg daily, amitriptyline 50 mg daily, metoprolol 50 mg daily, furosemide 40 mg daily, potassium chloride, lisinopril 10 mg daily, Advair Discus 500/50 twice daily (bid), and montelukast 10 mg daily. They were started on our comprehensive program. Five months after starting their weight loss treatment, they developed symptoms of hypothyroidism with constipation and fatigue. They had lost 28 lbs by this time and was having difficulty losing more weight even though they were eating less than they were before their weight loss treatment began. At the start of treatment, their FT4 was 0.9 ng/dL (nl 0.7-1.48). At the time of their low thyroid symptoms, their FT3 was 2.9 pg/mL (nl 1.71-3.71) and their FT4 was 0.91 ng/dL (nl 0.7-1.48). They were then treated with thyroid hormone (desiccated thyroid with a ratio of T4:T3 of about 4:1) at 60 mg daily for 6 days to acclimate, then increased to 120 mg daily. […] After two years on their weight loss treatment, their weight was 231 lbs. […] We tested for rT3 at this point. Their labs on the 150 mg dose of desiccated thyroid were: rT3 394 pg/mL (nl 90-350), FT3 3.94 pg/mL (nl 1.71-3.71), and FT4 1.24 ng/dL (nl 0.7-1.48). The task of bringing down their rT3 was then addressed. Over a period of a few months, their desiccated thyroid hormone was discontinued and instead the patient was given gradually increasing doses of T3 only, starting at 20 mcg daily and gradually increasing the T3 to 60 mcg bid. Five months after starting on T3 with increasing doses, their weight had dropped to 209 lbs. Their BP was 118/66 mmHg with pulse of 74 on lisinopril 10 mg daily, metoprolol 50 mg bid, and furosemide 40 mg daily. Instead of glipizide, they were taking metformin 500 mg bid. […] Their most recent labs on 60 mcg bid of T3 were FT3 3.8 pg/mL (nl 1.71-3.71), FT4 0.64 ng/dL (nl 0.7-1.48) and rT3 137 pg/mL (nl 90-350). Four months prior to this visit their BS was 125 mg/dl. […]

Compound `N[C@@H](Cc1cc(I)c(Oc2ccc(O)c(I)c2)c(I)c1)C(=O)O` [T3, (2S)-2-amino-3-[4-(4-hydroxy-3-iodo-phenoxy)-3,5-diiodo-phenyl]propanoic acid] has an FT4 (Patient Example 1, on 60 mcg bid, nl 0.7-1.48) of 0.64 ng/dL, an FT3 (Patient Example 1, on 60 mcg bid, nl 1.71-3.71) of 3.8 pg/mL and a rT3 (Patient Example 1, on 60 mcg bid, nl 90-350) of 137 pg/mL. The FT4 (Patient Example 2, T3 only, 25 mcg bid, nl 0.93-1.70) was 0.67 ng/dL, the FT3 (Patient Example 2, T3 only, 25 mcg bid, nl 2.2-4.0) was 2.5 pg/mL and the rT3 (Patient Example 2, T3 only, 25 mcg bid, nl 90-350) was 193 pg/mL. For the same compound, the FT4 (Patient Example 4, T3 50 mcg 2 PO q am and 1 PO 8-10 hours later, normal range 0.93-1.7) was “less than 0.1 ng/dL”, the FT3 (Patient Example 4, T3 50 mcg 2 PO q am and 1 PO 8-10 hours later, normal range 2.2-4.0) was 7.0 pg/mL and the rT3 (Patient Example 4, T3 50 mcg 2 PO q am and 1 PO 8-10 hours later, normal range 90-350) was “less than 15 pg/mL”.
